What was measured:
[1] = test system: α-ketoglutarate dehydrogenase; experiment: TCA cycle enzyme activity in relapsed LSCs after APO866; assay type: cell-based, human; details: 4 hours
relapsed LSCs = experiment: APO866 treatment of LSCs from relapsed AML patients (NAD+, viability, colony formation, OXPHOS, glycolysis, metabolic flux); assay type: cell-based, human
From the text: (§1) To determine if nicotinamide metabolism is important in LSC survival, particularly in the context of relapsed disease, LSCs were first isolated from de novo AML and relapsed AML patients and analyzed. […] Nicotinamide is a precursor of NAD+, an essential coenzyme in energy metabolism. To test if relapsed LSCs are dependent on nicotinamide metabolism to maintain energy metabolism, nicotinamide metabolism was disrupted in LSCs using the small molecule APO866, which is an inhibitor of Nampt, the rate-limiting enzyme for conversion of nicotinamide to NAD+.
(§2) To better understand the mechanism by which inhibiting nicotinamide metabolism targets relapsed LSCs, changes in OXPHOS and glycolysis activity in de novo and relapsed LSCs after APO866 treatment was measured. […] No change in glycolysis was observed.
To determine how APO866 reduced OXPHOS, stable isotope metabolic flux of amino acids, the fatty acid palmitate, and glucose into the TCA cycle after APO866 treatment was measured.

de novo LSCs = experiment: APO866 treatment of LSCs from de novo AML patients (NAD+, viability, colony formation, OXPHOS); assay type: cell-based, human
From the text: as §1, §2

[2] = test system: relapsed AML patient sample; experiment: Engraftment of APO866-treated relapsed AML patient sample into immune deficient mice; assay type: in vivo; details: sample treated for 24 hours before engraftment
malate dehydrogenase = experiment: TCA cycle enzyme activity in relapsed LSCs after APO866; assay type: cell-based, human; details: 4 hours
isocitrate dehydrogenase = experiment: as above; assay type: cell-based, human; details: 4 hours
CD34+/CD38−/CD123+ cells = experiment: Viability of cell populations from MDS patient samples in vitro; assay type: cell-based, human; details: for viability / killing of CD123+ MDS stem cells: MDS patient samples, anisomycin 200 nM and 400 nM, ABT-199 200 nm, omacetaxine 200 nM, azacitidine 2.5 μM
Description: Strategies involving inhibiting protein translation were investigated as a means of improving therapeutic outcomes for MDS through the targeting of pathways deregulated in the CD123+ MDS stem cell compartment. A reagent grade compound, anisomycin was tested. Anisomycin is known to inhibit protein translation and induce “ribotoxic stress”.
(§3) Next, the drug omacetaxine mepesuccinate was tested. Omacetaxine is a protein synthesis inhibitor which is FDA approved.
The drug azacitidine was also tested.
The second major phenotype found to be deregulated in CD123+ cells was oxidative phosphorylation and redox status. Thus, the ability of the BCL-2 inhibitor ABT-199 (venetoclax) to preferentially eliminate MDS stem cells was tested.

ROS-low LSCs = experiment: In vitro amino acid uptake, amino acid levels and transporter expression in LSCs; assay type: cell-based, human; details: LSCs isolated from three patients
Description: Amino acid levels and cell viability were then measured.

MDS stem cells = experiment: Patient bone marrow derived xenograft model of MDS in NSG-S mice; assay type: in vivo; details: for engraftment models with single agent toxicity for human CD45+ cells: three high-risk MDS patient xenografts
From the text: To further evaluate the clinical potential of various agents for targeting of MDS stem cells, an in vivo patient bone marrow derived xenograft model of MDS was developed. The system employed the use of primary MDS specimens transplanted into immune deficient NSG-S mice.
Xenografts established using specimens from three independent high-risk MDS patients were used. Drug treatments included single agent therapy with omacetaxine, venetoclax (ABT), azacitidine, the combination of omacetaxine and venetoclax, or the combination of omacetaxine and azacitidine. To evaluate overall drug activity, the reduction of total human hematopoietic cells was measured using the CD45 (pan-hematopoietic) antigen as a marker. […] Next, drug activity in the stem cell compartment was monitored by gating on the CD34+/CD38−/CD123+ subpopulation.

ETC complex II = experiment: Glutathione, sdhA glutathionylation and ETC complex II activity in primary AML specimens in vitro; assay type: cell-based, human
AML blasts = experiment: OXPHOS (seahorse assay) in leukemia cells from patients pre and 24 hours post treatment; assay type: in vivo, human; details: patients receiving single agent
LSCs = experiment: In vitro viability of LSCs from AML patient samples; assay type: cell-based, human
primary MDS cells = experiment: Mitochondrial respiration of primary MDS cells; assay type: cell-based, human
From the text: An additional component of the efficacy observed with combined ABT-199 and omacetaxine may involve suppression of MCL-1 as increased MCL-1 expression in CD34+/CD123+ MDS cells was observed. Resistance to BCL-2 inhibition can be overcome via treatment with protein synthesis inhibitors, which down-regulate expression of MCL-1.

protein synthesis = experiment: Protein translation levels (OP-puro) in MDS cells; assay type: cell-based, human; details: MDS patient samples, 4 hours
Description: The upregulation of the translation gene sets indicates a potential for increased protein synthesis in the CD123+ stem cell population. To further investigate changes in translational activity, protein synthesis levels were measured by culturing cells with a fluorescent substrate known as OP-puro, which is incorporated into newly synthesized polypeptide chains and can be quantified as a measure of overall protein synthesis activity.
as §3

CD34+ cells = experiment: Valinomycin treatment of normal CD34+ cells; assay type: cell-based, human; details: control and shFIS1 CD34+ cells
MOLM-13 cells = experiment: Valinomycin-induced mitophagy in MOLM-13 cells; assay type: cell-based, human; details: control MOLM-13 cells
Description: To test whether FIS1 is responsible for the distinct mitochondrial morphology, shRNA-mediated knockdown studies in both the AML cell line MOLM-13 and primary AML cells were performed to examine the effect of FIS1 loss on mitochondrial dynamics. […] To determine if the increased mitochondrial content in FIS1-depleted AML cells is caused by a deficient state of mitophagy, mitophagy was induced in the FIS1-depleted and control cells using the mitochondrial stress inducer valinomycin. […] Expression of PINK1, a kinase stabilized upon mitophagy activation and involved in the clearance of damaged mitochondria was also measured.

[3] = test system: LSCs and non-LSCs from human AML specimens; experiment: Valinomycin treatment of freshly sorted LSCs and non-LSCs; assay type: cell-based
Description: To determine whether primary AML cells with a higher expression of FIS1 have increased mitophagy activity, valinomycin treatment experiments were performed on freshly sorted LSCs and non-LSCs from human AML specimens.

Compound: O=C(/C=C/c1cccnc1)NCCCCC1CCN(C(=O)c2ccccc2)CC1 [APO866]
- α-ketoglutarate dehydrogenase activity [1]: significantly decreased
- normal hematopoietic stem cell frequency or colony forming ability (normal HSPCs): did not affect
- NAD+ (relapsed LSCs; LSCs from relapsed AML patient samples): significant decrease in NAD+
- viability and colony-forming ability (relapsed LSCs; LSCs from relapsed AML patients, 24 hours): decreased viability and colony-forming ability
- glycolysis (relapsed LSCs; de novo and relapsed LSCs): No change
- OXPHOS and OXPHOS capacity (relapsed LSCs; relapsed LSCs, 4 hours): significant decrease
- citrate, malate, and α-ketoglutarate from amino acids and palmitate (relapsed LSCs; stable isotope metabolic flux): increased accumulation
- glycolysis or glucose contribution to the TCA cycle (relapsed LSCs; stable isotope metabolic flux): No changes
- NAD+ (de novo LSCs; LSCs from de novo AML patient samples): significant decrease in NAD+
- viability and colony-forming ability (de novo LSCs; LSCs from de novo, untreated patients, 24 hours): not LSCs from de novo, untreated patients
- OXPHOS and OXPHOS capacity (de novo LSCs; de novo LSCs, 4 hours): not de novo LSCs
- leukemia engraftment [2]: significant reduction in leukemia engraftment
- malate dehydrogenase activity (malate dehydrogenase): significantly decreased
- isocitrate dehydrogenase activity (isocitrate dehydrogenase): significantly decreased

Compound: COc1ccc(C[C@H]2NC[C@H](O)[C@H]2OC(C)=O)cc1 [Anisomycin, anisomycin]
- viability / killing of CD123+ MDS stem cells (CD34+/CD38−/CD123+ cells): selective killing

Compound: Nc1ncn([C@@H]2O[C@H](CO)[C@@H](O)[C@H]2O)c(=O)n1 [azacitidine]
- amino acid transporter expression (ROS-low LSCs): Neither venetoclax nor azacitidine could reduce expression
- engraftment models with single agent toxicity for human CD45+ cells (MDS stem cells): one
- ROS levels (ETC complex II): can increase ROS levels
- patients without alterations in OXPHOS levels (AML blasts): two of three
- viability / killing of CD123+ MDS stem cells (CD34+/CD38−/CD123+ cells): no significant decreases in viability
- toxicity between CD123+ vs. CD123− (CD34+/CD38−/CD123+ cells; seven high-risk MDS patient specimens): no differential toxicity
- ROS-low LSC and ROS-high AML blast viability (LSCs; in vitro, 500 nM venetoclax, 2.5 μM azacitidine, 24 hours): potentiates the effect of venetoclax

Compound: CCOC(=O)[C@@]1(CCCCCCOc2ccc(Cl)cc2)CO1 [etomoxir]
- sensitization of LSCs (LSCs; venetoclax/azacitidine resistant LSCs): potently sensitizes LSCs to venetoclax+azacitidine

Compound: COC(=O)C[C@](O)(CCCC(C)(C)O)C(=O)O[C@@H]1C(OC)=C[C@]23CCCN2CCc2cc4c(cc2[C@H]13)OCO4 [omacetaxine, omacetaxine mepesuccinate]
- mitochondrial respiration (primary MDS cells): impairs mitochondrial respiration
- protein translation levels (protein synthesis): effective at decreasing protein translation levels
- engraftment models with single agent toxicity in the more primitive cells (MDS stem cells; CD34+/CD38−/CD123+ subpopulation): 2 of 3
- reduction in CD34+/CD38−/CD123+ cells (MDS stem cells; each xenograft): greater than or equal to 50%
- reduction in CD34+/CD38−/CD123+ cells (MDS stem cells; one xenograft): > 80%
- engraftment models with single agent toxicity for human CD45+ cells (MDS stem cells): two
- viability / killing of CD123+ MDS stem cells (CD34+/CD38−/CD123+ cells): specifically targeted CD123+ cells

Compound: CC(C)[C@@H]1NC(=O)[C@H](C)OC(=O)[C@@H](C(C)C)NC(=O)[C@@H](C(C)C)OC(=O)[C@H](C(C)C)NC(=O)[C@H](C)OC(=O)[C@@H](C(C)C)NC(=O)[C@@H](C(C)C)OC(=O)[C@H](C(C)C)NC(=O)[C@H](C)OC(=O)[C@@H](C(C)C)NC(=O)[C@@H](C(C)C)OC1=O [valinomycin]
- mitochondrial mass (CD34+ cells): induced mitochondrial accumulation
- mitochondrial content (MOLM-13 cells): loss of mitochondria
- PINK1 expression (MOLM-13 cells; 5 mM valinomycin for 3 hr): increased PINK1 expression
- mitochondrial mass in LSCs ([3]; freshly sorted LSCs): efficient clearance of mitochondria
- mitochondrial mass in non-LSCs ([3]; freshly sorted non-LSCs): further accumulation of mitochondrial mass

Compound: sorbitan sesquioleate [SSO]
- normal HSPCs viability or colony forming ability (normal HSPCs): did not affect

From patent publication US12544368B2, “Compositions and methods for reducing cancer stem cells” (The Regents of the University of Colorado, A Body Corporate, priority 2018, dated 2026)
